Assay [1] has as its system Copepodids (juvenile sea lice stage of Lepeophtheirus salmonis). The assay can be described thus: Juvenile sea lice contact assay. As to conditions: approximately 24 hours continuous exposure in seawater, read-out: Sea lice inhibition (% of dead+damaged copepodids); for inhibition at 0.01 µM: test concentration 10 nM; for inhibition at 0.1 µM: test concentration 100 nM; for inhibition at 0.001 µM: test concentration 1 nM; for inhibition at 10 pM: test concentration 0.01 nM. How it is done: Copepodids (juvenile sea lice stage of Lepeophtheirus salmonis) were exposed to seawater spiked with declining concentrations of a test compound (dissolved in a DMSO sea-water mixture). Sea lice inhibition (% of dead+damaged copepodids) was assessed after approximately 24 hours of continuous exposure. The vitality of used parasites was confirmed in a negative (solvent) control group.

Assay [2] relates to Mobile stages of sea lice (pre-adults, adults of Lepeophtheirus salmonis). The assay can be described thus: Adult sea lice contact assay. Conditions: assessed after approximately 1 and 24 hours of continuous exposure, read-out: EC50 (sea lice inhibition, dead+damaged sea lice). As for the experimental part: Mobile stages of sea lice (i.e., pre-adults, adults of Lepeophtheirus salmonis) were exposed to seawater spiked with declining concentrations of a test compound (dissolved in a PEG sea-water mixture). Sea lice inhibition (% of dead+damaged sea lice) was assessed after approximately 1 and 24 hours of continuous exposure in comparison to a negative (solvent) control group.

For the molecule `CC(C)(NC(=O)c1cc(NC(=O)C2C(c3cc(F)c(F)c(F)c3)C2(Cl)Cl)ccc1Cl)C(F)(F)F` (centres unmarked) [Compound 1603], the inhibition at 0.01 µM in assay [1] is ≥ 80%. The EC50 in assay [2] lay in the range of 0.01 to 0.025 µM.

Consider `O=C(NC1CCOC1=O)c1cc(NC(=O)C2C(c3cc(Cl)cc(Cl)c3)C2(Cl)Cl)ccc1Cl` (racemic) [Compound 1526], for which the inhibition at 0.01 µM in assay [1] came out at 100%.

As for `O=C(NC1CC(F)(F)C1)c1cc(NC(=O)C2C(c3cccc(C(F)(F)F)c3)C2(Cl)Cl)ccc1Cl` (centres unmarked) [Compound 1611], the inhibition at 0.1 µM in assay [1] came to 100%.

For `CC(NC(=O)c1cc(NC(=O)C2C(c3cc(F)c(F)c(F)c3)C2(Cl)Cl)ccc1Cl)C(F)(F)F` (racemic) [Compound 1602], in assay [1], the inhibition at 0.01 µM came out at 100%. Moreover, the EC50 in assay [2] is 0.01 to 0.025 µM.

For the molecule `N#CC1(NC(=O)c2cc(NC(=O)C3C(c4cc(C(F)(F)F)cc(C(F)(F)F)c4)C3(Cl)Cl)cc(F)c2F)CC1` (centres unmarked) [Compound 1615], in assay [1], the inhibition at 0.01 µM is 100%. In addition, the EC50 in assay [2] lay within 0.001 to 0.01 µM.

With `N#CC1(NC(=O)c2cc(NC(=O)C3C(c4cccc(C(F)F)c4)C3(Cl)Cl)ccc2Cl)CC1` (racemic) [Compound 1549], the inhibition at 0.1 µM in assay [1] came out at 100%.

With `C#CCNC(=O)c1cc(NC(=O)C2C(c3cc(C(F)(F)F)cc(C(F)(F)F)c3)C2(Cl)Cl)ccc1Cl` (centres unmarked) [Compound 1614], the inhibition at 0.001 µM in assay [1] came out at 80%. Also, the EC50 in assay [2] was ≤ 0.001 µM.

As for `N#CC1(NC(=O)c2cc(NC(=O)C3C(c4cc(F)c(Br)c(F)c4)C3(Cl)Cl)ccc2Cl)CC1` (racemic) [Compound 1544], the inhibition at 0.1 µM in assay [1] stood at 100%.

As to `O=C(NCC(F)(F)F)c1cc(NC(=O)C2C(c3ccc(F)c(F)c3)C2(Cl)Cl)ccc1Cl` (centres unmarked) [Compound 1591], in assay [1], the inhibition at 0.1 µM was determined as 100%.

For the molecule `Cc1c(Cl)cc(NC(=O)C2C(c3ccc(F)c(Cl)c3)C2(Cl)Cl)cc1C(=O)NCC(F)(F)F` (racemic) [Compound 1561], the inhibition at 0.01 µM in assay [1] is 100%.

In the case of `N#Cc1cc(Cl)cc(C2C(C(=O)Nc3ccc(Cl)c(C(=O)NC4(C#N)CC4)c3)C2(Cl)Cl)c1` (racemic) [Compound 1532], the inhibition at 0.1 µM in assay [1] came out at 100%. For the same molecule, the EC50 in assay [2] fell in the range of 0.01 to 0.025 µM.

For `Cc1c(Cl)cc(NC(=O)C2C(c3ccc(F)c(Cl)c3)C2(Cl)Cl)cc1C(=O)NCCCCl` (racemic) [Compound 1566], the inhibition at 0.01 µM in assay [1] turned out to be 100%.

Consider `O=C(NCC(F)(F)F)c1cc(NC(=O)C2C(c3ccc(F)c(Cl)c3)C2(Cl)Cl)ccc1Cl` (racemic) [Compound 1537], for which, in assay [1], the inhibition at 0.01 µM is 100%.

In the case of `Cc1cc(C2C(C(=O)Nc3ccc(Cl)c(C(=O)NC4(C#N)CC4)c3)C2(Cl)Cl)cc(Cl)c1Cl` (racemic) [Compound 1514], the inhibition at 0.1 µM in assay [1] was 100%. Further, the EC50 in assay [2] is 0.01 to 0.025 µM.

With `O=C(NCCC(F)(F)F)c1c(F)ccc(NC(=O)C2C(c3ccc(F)c(Cl)c3)C2(Cl)Cl)c1F` (racemic) [Compound 1573], the inhibition at 0.01 µM in assay [1] came to 100%.

As to `CCNC(=O)c1cc(NC(=O)C2C(c3cc(Cl)cc(Cl)c3)C2(Cl)Cl)ccc1Cl` (racemic) [Compound 1509], the inhibition at 0.01 µM in assay [1] amounted to 100%.

For `O=C(NC1CC(F)(F)C1)c1cc(NC(=O)C2C(c3cccc(C(F)(F)F)c3)C2(Cl)Cl)ccc1Cl` (racemic) [Compound 1508], in assay [1], the inhibition at 0.01 µM is 100%. The EC50 in assay [2] was in the range of 0.001 to 0.01 µM.

Consider `O=C(NCC(F)(F)F)c1cc(NC(=O)C2C(c3ccc(F)c(Cl)c3)C2(Cl)Cl)cc(F)c1F` (racemic) [Compound 1554], for which, in assay [1], the inhibition at 0.01 µM is ≥ 80%.

Regarding `Cc1cc(Cl)cc(C2C(C(=O)Nc3ccc(Cl)c(C(=O)NC4CC(F)(F)C4)c3)C2(Cl)Cl)c1` (racemic) [Compound 1513], in assay [1], the inhibition at 0.01 µM turned out to be 100%.

For `C#CCNC(=O)c1cc(NC(=O)C2C(c3cc(Cl)cc(Cl)c3)C2(Cl)Cl)ccc1F` (centres unmarked) [Compound 1631], in assay [1], the inhibition at 0.1 µM turned out to be 100%.

For `O=C(NCC(F)(F)F)c1cc(NC(=O)C2C(c3ccc(F)c(Cl)c3)C2(Cl)Cl)ccc1F` (racemic) [Compound 1559], the inhibition at 10 pM in assay [1] amounted to 100%.

As to `N#CC1(NC(=O)c2cc(NC(=O)C3C(c4ccc(Cl)c(C(F)F)c4)C3(Cl)Cl)ccc2Cl)CC1` (racemic) [Compound 1546], the inhibition at 0.1 µM in assay [1] was 100%. Besides, the EC50 in assay [2] was 0.01 to 0.025 µM.

With `O=C(NCC(F)(F)F)c1cc(NC(=O)C2C(c3cc(C(F)(F)F)cc(C(F)(F)F)c3)C2(Cl)Cl)ccc1Cl` (centres unmarked) [Compound 1613], the inhibition at 0.01 µM in assay [1] was determined as 100%. In addition, the EC50 in assay [2] is ≤ 0.001 µM.

For `O=C(NCC(F)(F)F)c1cc(NC(=O)C2C(c3cc(F)c(F)c(F)c3)C2(Cl)Cl)ccc1Cl` (racemic) [Compound 1551], the inhibition at 10 pM in assay [1] was determined as 100%.

On to `O=C(NCC(F)(F)F)c1cc(NC(=O)C2C(c3ccc(F)c(Cl)c3)C2(Cl)Cl)cc(Cl)c1F` (racemic) [Compound 1570], for which the inhibition at 0.01 µM in assay [1] was ≥ 80%.

With `Cc1cc(NC(=O)C2C(c3ccc(F)c(Cl)c3)C2(Cl)Cl)cc(C(=O)NCCCCl)c1Cl` (racemic) [Compound 1557], in assay [1], the inhibition at 0.01 µM was determined as 100%.

`N#CC1(NC(=O)c2cc(NC(=O)C3C(c4ccc(F)c(Cl)c4)C3(Cl)Cl)cc(F)c2F)CC1` (centres unmarked) [Compound 1589]: the inhibition at 0.001 µM in assay [1] is 80%. Further, the EC50 in assay [2] is ≤ 0.001 µM.

Consider `C#CCNC(=O)c1cc(NC(=O)C2C(c3cc(Cl)cc(Cl)c3)C2(Cl)Cl)cc(F)c1F` (centres unmarked) [Compound 1629], for which, in assay [1], the inhibition at 0.1 µM was found to be 100%.

On to `O=C(NCCC(F)(F)F)c1cc(NC(=O)C2C(c3ccc(F)c(Cl)c3)C2(Cl)Cl)ccc1Cl` (racemic) [Compound 1538], for which the inhibition at 10 pM in assay [1] was 100%.

As for `O=C(NCC(F)(F)F)c1cc(NC(=O)C2C(c3ccc(F)c(Cl)c3)C2(Cl)Cl)cc(F)c1Cl` (racemic) [Compound 1565], the inhibition at 10 pM in assay [1] was 100%.

In the case of `N#CC1(NC(=O)c2cc(NC(=O)C3C(c4ccc(Cl)c(Cl)c4)C3(Cl)Cl)ccc2Cl)CC1` (racemic) [Compound 1501], the inhibition at 0.01 µM in assay [1] is ≥ 80%.

As for `O=C(NCCF)c1cc(NC(=O)C2C(c3cc(Cl)cc(Cl)c3)C2(Cl)Cl)cc(Cl)c1Cl` (racemic) [Compound 1539], the inhibition at 0.01 µM in assay [1] amounted to 100%.

For `O=C(NC1COC1)c1cc(NC(=O)C2C(c3cc(Cl)cc(Cl)c3)C2(Cl)Cl)ccc1Cl` (racemic) [Compound 1510], the inhibition at 0.01 µM in assay [1] was 100%.

As to `CC1(NC(=O)c2cc(NC(=O)C3C(c4cc(Cl)cc(Cl)c4)C3(Cl)Cl)cc(F)c2F)CC1` (centres unmarked) [Compound 1616], the inhibition at 0.1 µM in assay [1] stood at 100%.

Take `O=C(NCCF)c1cc(NC(=O)C2C(c3ccc(F)c(Cl)c3)C2(Cl)Cl)ccc1F` (racemic) [Compound 1558]: the inhibition at 10 pM in assay [1] worked out at 100%.

As to `N#CC1(NC(=O)c2cc(NC(=O)C3C(c4cc(Cl)cc(C(F)F)c4)C3(Cl)Cl)ccc2Cl)CC1` (racemic) [Compound 1545], in assay [1], the inhibition at 0.1 µM was 100%. Further, the EC50 in assay [2] is 0.01 to 0.025 µM.

`O=C(NCCCCl)c1cc(NC(=O)C2C(c3ccc(F)c(Cl)c3)C2(Cl)Cl)ccc1F` (racemic) [Compound 1563]: in assay [1], the inhibition at 10 pM came out at 100%.

With `Cc1c(F)cc(NC(=O)C2C(c3ccc(F)c(Cl)c3)C2(Cl)Cl)cc1C(=O)NCC(F)(F)F` (racemic) [Compound 1567], the inhibition at 0.001 µM in assay [1] was found to be 100%.

As to `N#CC1(NC(=O)c2cc(NC(=O)C3C(c4cc(Cl)cc(Cl)c4)C3(Cl)Cl)ccc2Cl)CC1` (racemic) [Compound 1515], the inhibition at 0.01 µM in assay [1] was determined as 100%.

For `CC(C)CNC(=O)c1cc(NC(=O)C2C(c3cc(Cl)cc(Cl)c3)C2(Cl)Cl)ccc1Cl` (racemic) [Compound 1502], the inhibition at 0.01 µM in assay [1] came out at 100%.

For the molecule `O=C(NC1(C(F)(F)F)CC1)c1cc(NC(=O)C2C(c3cc(Cl)cc(Cl)c3)C2(Cl)Cl)ccc1F` (centres unmarked) [Compound 1627], the inhibition at 0.1 µM in assay [1] was ≥ 80%.

As for `O=C(NCCC(F)(F)F)c1cc(NC(=O)C2C(c3cc(Cl)cc(Cl)c3)C2(Cl)Cl)cc(Cl)c1Cl` (racemic) [Compound 1552], the inhibition at 0.01 µM in assay [1] was ≥ 80%.

`CCNC(=O)c1cc(NC(=O)C2C(c3cc(Cl)cc(Cl)c3)C2(Cl)Cl)cc(Cl)c1Cl` (racemic) [Compound 1553]: the inhibition at 0.01 µM in assay [1] turned out to be 100%.

Consider `N#CC1(NC(=O)c2cc(NC(=O)C3C(c4cc(C(F)(F)F)cc(C(F)(F)F)c4)C3(Cl)Cl)ccc2Cl)CC1` (centres unmarked) [Compound 1612], for which the inhibition at 0.01 µM in assay [1] stood at 100%. Moreover, the EC50 in assay [2] lay within 0.01 to 0.025 µM.

For `N#CC1(NC(=O)c2cc(NC(=O)C3C(c4ccc(C(F)F)c(Cl)c4)C3(Cl)Cl)ccc2Cl)CC1` (racemic) [Compound 1548], the EC50 in assay [2] was in the range of 0.01 to 0.025 µM.

For the molecule `CC1(NC(=O)c2cc(NC(=O)C3C(c4cc(Cl)cc(Cl)c4)C3(Cl)Cl)ccc2Cl)CC1` (racemic) [Compound 1523], in assay [1], the inhibition at 0.001 µM came out at 80%.

As to `O=C(NCC(F)(F)F)c1cc(NC(=O)C2C(c3cc(Cl)cc(Cl)c3)C2(Cl)Cl)ccc1Cl` (racemic) [Compound 1500], the inhibition at 0.01 µM in assay [1] is ≥ 80%.

As to `O=C(NC1CC(F)(F)C1)c1cc(NC(=O)C2C(c3cc(Cl)cc(Cl)c3)C2(Cl)Cl)ccc1Cl` (centres unmarked) [Compound 1531], the inhibition at 0.01 µM in assay [1] turned out to be 100%.

`O=C(NCCF)c1cc(NC(=O)C2C(c3ccc(F)c(Cl)c3)C2(Cl)Cl)ccc1Cl` (racemic) [Compound 1536]: in assay [1], the inhibition at 10 pM is 100%.

Consider `O=C(NCCCCl)c1cc(NC(=O)C2C(c3ccc(F)c(Cl)c3)C2(Cl)Cl)cc(F)c1F` (racemic) [Compound 1574], for which, in assay [1], the inhibition at 0.001 µM turned out to be 80%.

As a reminder, the inhibition is the relative decrease from the control value, in per cent. For orientation: EC50 means the concentration that produces a half-maximal response.

These data come from US12655090B2, “Cyclopropylamide compounds against parasites in fish” (Intervet Inc., priority 2021, dated 2026).
